Source: patent publication US4242510A, “Cephalosporin compounds and processes for the preparation thereof” (Fujisawa Pharmaceutical Co., Ltd., priority 1976, dated 1980)
Converted amounts (≈) assume the structure as drawn.

What was measured:
Test in all cases: In vitro antibacterial activity, two-fold agar-plate dilution method
Assay type in all cases: cell-based
[1] = test system: Esherichia coli 327; conditions: HI-agar, 37° C., 20 hours
Experimental: (§1) In vitro antibacterial activity was determined by the two-fold agar-plate dilution method as described below. One loopful of an overnight culture of each test strain in Trypticase-soy broth (approximately 10^6 viable cells per ml.) was streaked on heat infusion agar (HI-agar) containing graded concentrations of antibiotics, and the minimal inhibitory concentration (MIC) was expressed in terms of μg./ml. after incubation at 37° C. for 20 hours.

[2] = test system: Proteus mirabilis 525; conditions: HI-agar, 37° C., 20 hours
Experimental: as §1

[3] = test system: Proteus vulgaris LAM-1025; conditions: LAM1025, HI-agar, 37° C., 20 hours
Experimental: as §1

[4] = test system: Pseudmonas aeruginose NCTC-10490; conditions: HI-agar, 37° C., 20 hours
Experimental: as §1

[5] = test system: Staphylococcus aureus 209-P JC-1; conditions: HI-agar, 37° C., 20 hours
Experimental: as §1

Compound | MIC [1] [µg/mL] | MIC [2] [µg/mL] | MIC [3] [µg/mL] | MIC [4] [µg/mL] | MIC [5] [µg/mL]
CON=C(C(=O)NC1C(=O)N2C(C(=O)O)=C(CSc3nncs3)CS[C@H]12)C1=CSCCS1 (some centres unmarked) [compound 4, 7-[2-(2,3-dihydro-1,4-dithiin-5-yl)2-methoxyiminoacetamido]-3-(1,3,4-thiadiazol-2-yl)thiomethyl-3-cephem-4-carboxylic acid] | 0.78 (≈ 1.47 µM) | 3.13 (≈ 5.89 µM) | 6.25 (≈ 11.8 µM) | 50 (≈ 94 µM) | 0.39 (≈ 0.734 µM)
CON=C(C(=O)NC1C(=O)N2C(C(=O)O)=CCS[C@H]12)C1=CSCCS1 (some centres unmarked) [compound 5, 7-[2-(2,3-dihydro-1,4-dithiin-5-yl)-2-methoxyiminoacetamido]-3-cephem-4-carboxylic acid] | – | – | 3.13 (≈ 7.8 µM) | 400 (≈ 996 µM) | 6.25 (≈ 15.6 µM)
CON=C(C(=O)NC1C(=O)N2C(C(=O)O)=C(COC(N)=O)CS[C@H]12)C1=CSCCO1 (some centres unmarked) [compound 3, 7-[2-(2,3-dihydro-1,4-oxathiin-6-yl)-2-methoxyiminoacetamido]-3-carbamoyloxymethyl-3-cephem-4-carboxylic acid] | 0.78 (≈ 1.7 µM) | 0.78 (≈ 1.7 µM) | 100 (≈ 218 µM) | 50 (≈ 109 µM) | 6.25 (≈ 13.6 µM)
CO/N=C(\C(=O)NC1C(=O)N2C(C(=O)O)=C(COC(C)=O)CSC12)C1=CSCCO1 (centres unmarked) [compound 1, 7-[2-(2,3-dihydro-1,4-oxathiin-6-yl)-2-methoxyiminoacetamido]cephalosporanic acid] | 0.78 (≈ 1.7 µM) | 0.78 (≈ 1.7 µM) | 12.5 (≈ 27.3 µM) | 25 (≈ 54.6 µM) | 3.13 (≈ 6.84 µM)
CON=C(C(=O)NC1C(=O)N2C(C(=O)O)=C(CSc3nnnn3C)CS[C@H]12)C1=CSCCO1 (some centres unmarked) [compound 2, 7-[2-(2,3-dihydro-1,4-oxathiin-6-yl)-2-methoxyiminoacetamido]-3-(1-methyl-1H-tetrazol-5-yl)thiomethyl-3-cephem-4-carboxylic acid] | 0.2 (≈ 0.389 µM) | 0.78 (≈ 1.52 µM) | 25 (≈ 48.7 µM) | 12.5 (≈ 24.3 µM) | 3.13 (≈ 6.09 µM)
